The source of these data is article PMC11325505, “Nitrogen-Containing Flavonoids—Preparation and Biological Activity” (ACS Omega, 2024).

The test system of this test is transmembrane efflux pumps. As to the kind of experiment: Ethidium bromide accumulation assay. The test is classed as cell-based, S. aureus MSSA 2. The conditions noted are these: compared with comparator CCCP; concentrations 25–100 μM. The text has this: The application of antibiotics often leads to oxidative stress in bacteria, which triggers the efflux pump systems that contribute to antimicrobial resistance.[34] Therefore, modulation of the efflux system has been proposed as another plausible target of derivatives. The efflux pump inhibitor carbonyl cyanide 3-chlorophenylhydrazone (CCCP) was used as a comparator in our assay. Its action destroys the proton-motive force at the membrane so that the efflux pump cannot transport substrates out of the cell. One such universal substrate is ethidium bromide, the accumulation of which in the cell can be measured using fluorescence.
The accumulation assay was performed according to previously published methods with minor modifications.[15],[42] Briefly, a bacterial culture of S. aureus MSSA 2 cultured overnight in the presence of colistin (4 mg/L) to induce oxidative stress and activate efflux system[34] was diluted in PBS to OD600 nm = 0.6. The suspension was centrifuged (13,000 × g; 3 min), resuspended in fresh PBS, and distributed into the wells of a black 96-well microtiter plate (ThermoFisher Scientific). Samples were diluted with EtBr solution (4 μg/mL). 50 μL of the mixture was added to 50 μL of the bacterial suspension. The reaction was monitored using SpectraMax iD5Multi-Mode Microplate Reader (ex/em = 530/600 nm) every 60 s for 60 min.

Take `N#CC(C#N)=NNc1cccc(Cl)c1` [CCCP, carbonyl cyanide 3-chlorophenylhydrazone, reference compound]: the “efflux inhibition (ethidium bromide accumulation), in words” value was “increases the accumulation of ethidium bromide”.
